The values below come from US20260199483A1 (Bright Angel Therapeutics Inc., priority 2022, published 2026).

T1 sequence (A0A1D8PKB4 entry or part of it): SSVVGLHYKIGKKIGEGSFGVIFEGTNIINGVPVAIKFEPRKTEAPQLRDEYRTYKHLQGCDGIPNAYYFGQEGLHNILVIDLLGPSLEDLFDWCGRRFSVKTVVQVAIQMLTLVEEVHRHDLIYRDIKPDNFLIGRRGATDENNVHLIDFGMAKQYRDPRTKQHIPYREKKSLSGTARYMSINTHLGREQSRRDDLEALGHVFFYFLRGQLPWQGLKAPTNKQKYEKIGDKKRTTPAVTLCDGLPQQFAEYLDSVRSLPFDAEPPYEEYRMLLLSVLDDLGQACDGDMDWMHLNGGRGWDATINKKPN

This test concerns the target T1, purified recombinant Yck2 (Candida albicans, UniProt A0A1D8PKB4).
T1 construct: Yck2 residues 37-345 were PCR amplified from C. albicans genomic DNA; His6 (N); TEV protease site (N); made in house; host or cells: E. coli BL21(DE3)-Gold
As to the kind of experiment: HotSpot kinase assay. Format: biochemical, C. albicans. On the procedure:
IC50s were determined using the in vitro HotSpot kinase assay (purified enzymes, ^33P-ATP, an appropriate substrate and 1 μM ATP). For enzyme inhibition assays, compounds were tested in range of ten concentrations from 10 uM to 0.0005 uM using purified recombinant Yck2. Reaction conditions were 1 uM ATP, one hour incubation with inhibitor, and kinase activity detected using 33-ATP phosphorylation of an appropriately selected peptide substrate.
Yck2 residues 37-345 were PCR amplified from C. albicans genomic DNA and subcloned into the vector pMCSG53, which codes for a N-terminal His6 tag, TEV protease site, followed by the Yck2 protein. E. coli BL21(DE3)-Gold competent cells were transformed with this plasmid and the Yck2 protein was purified using methodology previously described (Stogios et al., ACS Chem. Biol. 13, 1322-1332 (2018)).
On to `Nc1nccc(-c2c(-c3ccc(F)cc3)ncn2C2CCN(CCC(=O)NC3CCN(CC(O)(Cn4cncn4)c4ccc(F)cc4F)CC3)CC2)n1` (stereo not shown) [Compound I-234, 3-(4-(5-(2-aminopyrimidin-4-yl)-4-(4-fluorophenyl)-1H-imidazol-1-yl)piperidin-1-yl)-N-(1-(2-(2,4-difluorophenyl)-2-hydroxy-3-(1H-1,2,4-triazol-1-yl)propyl)piperidin-4-yl)propanamide], for which the IC50 was found to be 8.12 nM.

With `Nc1nccc(-c2c(-c3ccc(F)cc3)ncn2C2CCN(CC[C@](O)(Cn3cncn3)c3ccc(F)cc3F)CC2)n1` [Compound I-53, (R)-4-(4-(5-(2-aminopyrimidin-4-yl)-4-(4-fluorophenyl)-1H-imidazol-1-yl)piperidin-1-yl)-2-(2,4-difluorophenyl)-1-(1H-1,2,4-triazol-1-yl)butan-2-ol], the IC50 stood at 9.52 nM.

Consider `Nc1nccc(-c2c(-c3ccc(F)cc3)ncn2C2CCN(CC(O)(Cn3ccnn3)c3ccc(F)cc3F)CC2)n1` (stereo not shown) [Compound I-35, 1-(4-(5-(2-aminopyrimidin-4-yl)-4-(4-fluorophenyl)-1H-imidazol-1-yl)piperidin-1-yl)-2-(2,4-difluorophenyl)-3-(1H-1,2,3-triazol-1-yl)propan-2-ol], for which the IC50 stood at 6.8 nM.

For `Nc1nccc(-c2c(-c3ccc(F)cc3)ncn2C2CCN(CC(=O)NCC(O)(Cn3cncn3)c3ccc(F)cc3F)CC2)n1` (stereo not shown) [Compound I-71, 2-(4-(5-(2-aminopyrimidin-4-yl)-4-(4-fluorophenyl)-1H-imidazol-1-yl)piperidin-1-yl)-N-(2-(2,4-difluorophenyl)-2-hydroxy-3-(1H-1,2,4-triazol-1-yl)propyl)acetamide], the IC50 came to 9.33 nM.

Consider `Cn1cc(-c2ccncc2COCC[C@](O)(Cn2cncn2)c2ccc(F)cc2F)c(-c2ccc(F)cc2)n1` [Compound I-235, (R)-2-(2,4-difluorophenyl)-4-((4-(3-(4-fluorophenyl)-1-methyl-1H-pyrazol-4-yl)pyridin-3-yl)methoxy)-1-(1H-1,2,4-triazol-1-yl)butan-2-ol], for which the IC50 amounted to 107 nM.

For `Cn1cc(-c2ccnc3c2C(=O)N(CC(O)(Cn2cncn2)c2ccc(F)cc2F)C3)c(-c2ccc(F)cc2)n1` (stereo not shown) [Compound I-6, 6-(2-(2,4-difluorophenyl)-2-hydroxy-3-(1H-1,2,4-triazol-1-yl)propyl)-4-(3-(4-fluorophenyl)-1-methyl-1H-pyrazol-4-yl)-6,7-dihydro-5H-pyrrolo[3,4-b]pyridin-5-one], the IC50 is 72.7 nM.

On to `OC(CN1CCC(NCc2ccc3c(-c4ccncc4)c(-c4ccc(F)cc4)nn3c2)CC1)(Cn1cncn1)c1ccc(F)cc1F` (stereo not shown) [Compound I-254, 2-(2,4-difluorophenyl)-1-(4-(((2-(4-fluorophenyl)-3-(pyridin-4-yl)pyrazolo[1,5-a]pyridin-6-yl)methyl)amino)piperidin-1-yl)-3-(1H-1,2,4-triazol-1-yl)propan-2-ol], for which the IC50 was determined as 3.09 nM.

For `Cn1cc(-c2ccncc2CNCCC(O)(Cn2cncn2)c2ccc(F)cc2F)c(-c2ccc(F)cc2)n1` (stereo not shown) [Compound I-3, 2-(2,4-difluorophenyl)-4-(((4-(3-(4-fluorophenyl)-1-methyl-1H-pyrazol-4-yl)pyridin-3-yl)methyl)amino)-1-(1H-1,2,4-triazol-1-yl)butan-2-ol], the IC50 was determined as 179 nM.

As to `O=C(NCC(O)(Cn1cncn1)c1ccc(F)cc1F)c1cccc2c(-c3ccncc3)c(-c3ccc(F)cc3)nn12` (stereo not shown) [Compound I-151, N-(2-(2,4-difluorophenyl)-2-hydroxy-3-(1H-1,2,4-triazol-1-yl)propyl)-2-(4-fluorophenyl)-3-(pyridin-4-yl)pyrazolo[1,5-a]pyridine-7-carboxamide], the IC50 amounted to 765 nM.

As for `Cn1cc(-c2ccncc2CNCC(O)(Cn2cncn2)c2ccc(F)cc2F)c(-c2ccc(F)cc2)n1` (stereo not shown) [Compound I-5, 2-(2,4-difluorophenyl)-1-(((4-(3-(4-fluorophenyl)-1-methyl-1H-pyrazol-4-yl)pyridin-3-yl)methyl)amino)-3-(1H-1,2,4-triazol-1-yl)propan-2-ol], the IC50 is 335 nM.

With `OC(CNCc1ccc2c(-c3ccncc3)c(-c3ccc(F)cc3)nn2c1)(Cn1cncn1)c1ccc(F)cc1F` (stereo not shown) [Compound I-152, 2-(2,4-difluorophenyl)-1-(((2-(4-fluorophenyl)-3-(pyridin-4-yl)pyrazolo[1,5-a]pyridin-6-yl)methyl)amino)-3-(1H-1,2,4-triazol-1-yl)propan-2-ol], the IC50 worked out at 3.37 nM.

Regarding `Nc1nccc(-c2c(-c3ccc(F)cc3)ncn2C2CCN(CC[C@@](O)(Cn3cncn3)c3ccc(F)cc3F)CC2)n1` [Compound I-55, (S)-4-(4-(5-(2-aminopyrimidin-4-yl)-4-(4-fluorophenyl)-1H-imidazol-1-yl)piperidin-1-yl)-2-(2,4-difluorophenyl)-1-(1H-1,2,4-triazol-1-yl)butan-2-ol], the IC50 was determined as 8.41 nM.

With `Nc1nccc(-c2c(-c3ccc(F)cc3)ncn2C2CCN(C[C@](O)(Cn3cncn3)c3ccc(F)cc3F)CC2)n1` (single isomer, unassigned) [Compound I-33], the IC50 turned out to be 12.3 nM.

For `Nc1nccc(-c2c(-c3ccc(F)cc3)ncn2C2CCN(C(=O)CCNCC(O)(Cn3cncn3)c3ccc(F)cc3F)CC2)n1` (stereo not shown) [Compound I-77, 1-(4-(5-(2-aminopyrimidin-4-yl)-4-(4-fluorophenyl)-1H-imidazol-1-yl)piperidin-1-yl)-3-((2-(2,4-difluorophenyl)-2-hydroxy-3-(1H-1,2,4-triazol-1-yl)propyl)amino)propan-1-one], the IC50 was found to be 0.4 nM.

As to `Cn1cc(-c2ccnc3c2C(=O)N(CC(O)(Cn2ccnc2)c2ccc(F)cc2F)C3)c(-c2ccc(F)cc2)n1` (stereo not shown) [Compound I-1, 6-(2-(2,4-difluorophenyl)-2-hydroxy-3-(1H-imidazol-1-yl)propyl)-4-(3-(4-fluorophenyl)-1-methyl-1H-pyrazol-4-yl)-6,7-dihydro-5H-pyrrolo[3,4-b]pyridin-5-one], the IC50 amounted to 46.3 nM.

For the molecule `Cn1cc(-c2ccnc3c2C(=O)N(CCC2CCN(C[C@](O)(Cn4cncn4)c4ccc(F)cc4F)CC2)C3)c(-c2ccc(F)cc2)n1` (single isomer, unassigned) [Compound I-248], the IC50 was 4.69 nM.

`Cn1cc(-c2ccncc2COCCC(O)(Cn2cncn2)c2ccc(F)cc2F)c(-c2ccc(F)cc2)n1` (stereo not shown) [Compound I-233, 2-(2,4-difluorophenyl)-4-((4-(3-(4-fluorophenyl)-1-methyl-1H-pyrazol-4-yl)pyridin-3-yl)methoxy)-1-(1H-1,2,4-triazol-1-yl)butan-2-ol]: the IC50 is 65.9 nM.

Regarding `Cn1cc(-c2ccncc2CNC2CCN(CC(O)(Cn3cncn3)c3ccc(F)cc3F)CC2)c(-c2ccc(F)cc2)n1` (stereo not shown) [Compound I-4, 2-(2,4-difluorophenyl)-1-(4-(((4-(3-(4-fluorophenyl)-1-methyl-1H-pyrazol-4-yl)pyridin-3-yl)methyl)amino)piperidin-1-yl)-3-(1H-1,2,4-triazol-1-yl)propan-2-ol], the IC50 was 178 nM.

With `O[C@](CNCc1ccc2c(-c3ccncc3)c(-c3ccc(F)cc3)nn2c1)(Cn1cncn1)c1ccc(F)cc1F` [Compound I-252, (R)-2-(2,4-difluorophenyl)-1-(((2-(4-fluorophenyl)-3-(pyridin-4-yl)pyrazolo[1,5-a]pyridin-6-yl)methyl)amino)-3-(1H-1,2,4-triazol-1-yl)propan-2-ol], the IC50 is 2.07 nM.

Broadly, the IC50 is the concentration needed to halve the response being measured.
